Measured values published in PubChem BioAssay (NCI).
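Five concentrations, 48 hours, 96-well plates. GI50 is the concentration that inhibits growth by half. TGI marks complete inhibition of growth.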

Columns and labels:
Test in all cases: DTP human tumour cell line panel, 48 h
OVCAR-8 ovarian = test system: OVCAR-8 ovarian
EKVX NSCLC = test system: EKVX NSCLC
HOP-92 NSCLC = test system: HOP-92 NSCLC
NCI-H23 lung = test system: NCI-H23 lung
SF-268 CNS = test system: SF-268 CNS
KM12 colon = test system: KM12 colon
NCI-H460 lung = test system: NCI-H460 lung
SK-OV-3 ovarian = test system: SK-OV-3 ovarian
SR leukemia = test system: SR leukemia
PC-3 prostate = test system: PC-3 prostate
COLO 205 colon = test system: COLO 205 colon
HT29 colon = test system: HT29 colon
ACHN renal = test system: ACHN renal
OVCAR-3 ovarian = test system: OVCAR-3 ovarian
SK-MEL-28 melanoma = test system: SK-MEL-28 melanoma
SW-620 colon = test system: SW-620 colon
HL-60(TB) leukemia = test system: HL-60(TB) leukemia
UACC-257 melanoma = test system: UACC-257 melanoma
MDA-MB-231 breast = test system: MDA-MB-231 breast
SK-MEL-2 melanoma = test system: SK-MEL-2 melanoma
DU-145 prostate = test system: DU-145 prostate
NCI-H226 lung = test system: NCI-H226 lung
A549 NSCLC = test system: A549 NSCLC
SF-539 CNS = test system: SF-539 CNS
SN12C renal = test system: SN12C renal
BT-549 breast = test system: BT-549 breast
SNB-19 CNS = test system: SNB-19 CNS
SF-295 CNS = test system: SF-295 CNS
MCF7 breast = test system: MCF7 breast
T-47D breast = test system: T-47D breast
OVCAR-5 ovarian = test system: OVCAR-5 ovarian
K-562 leukemia = test system: K-562 leukemia
RPMI-8226 leukemia = test system: RPMI-8226 leukemia
HS 578T breast = test system: HS 578T breast
UO-31 renal = test system: UO-31 renal
IGROV1 ovarian = test system: IGROV1 ovarian
M14 melanoma = test system: M14 melanoma
HOP-62 NSCLC = test system: HOP-62 NSCLC
HCT-116 colon = test system: HCT-116 colon
786-0 renal = test system: 786-0 renal
HCT-15 colon = test system: HCT-15 colon
A498 renal = test system: A498 renal
U251 CNS = test system: U251 CNS
UACC-62 melanoma = test system: UACC-62 melanoma
HCC-2998 colon = test system: HCC-2998 colon
CCRF-CEM leukemia = test system: CCRF-CEM leukemia
OVCAR-4 ovarian = test system: OVCAR-4 ovarian
CAKI-1 renal = test system: CAKI-1 renal
TK-10 renal = test system: TK-10 renal
MDA-MB-435 = test system: MDA-MB-435
RXF 393 renal = test system: RXF 393 renal
MOLT-4 leukemia = test system: MOLT-4 leukemia
NCI/ADR-RES ovarian = test system: NCI/ADR-RES ovarian
SNB-75 CNS = test system: SNB-75 CNS
NCI-H522 lung = test system: NCI-H522 lung
SK-MEL-5 melanoma = test system: SK-MEL-5 melanoma
LOX IMVI melanoma = test system: LOX IMVI melanoma

COc1ccc(-c2[nH]c(=O)n(C3OC(CO)C(O)C(O)C3O)c(=O)c2C#N)cc1 (centres undefined)
TGI (OVCAR-8 ovarian): > 100 µM
TGI (EKVX NSCLC): > 100 µM
TGI (HOP-92 NSCLC): > 100 µM
TGI (NCI-H23 lung): > 100 µM
TGI (SF-268 CNS): > 100 µM
TGI (KM12 colon): > 100 µM
TGI (NCI-H460 lung): > 100 µM
TGI (SK-OV-3 ovarian): > 100 µM
TGI (SR leukemia): > 100 µM
TGI (PC-3 prostate): > 100 µM
TGI (COLO 205 colon): > 100 µM
TGI (HT29 colon): > 100 µM
TGI (ACHN renal): > 100 µM
TGI (OVCAR-3 ovarian): > 100 µM
TGI (SK-MEL-28 melanoma): > 100 µM
TGI (SW-620 colon): > 100 µM
TGI (HL-60(TB) leukemia): > 100 µM
TGI (UACC-257 melanoma): > 100 µM
TGI (MDA-MB-231 breast): > 100 µM
TGI (SK-MEL-2 melanoma): > 100 µM
TGI (DU-145 prostate): > 100 µM
TGI (NCI-H226 lung): > 100 µM
TGI (A549 NSCLC): > 100 µM
TGI (SF-539 CNS): > 100 µM
TGI (SN12C renal): > 100 µM
TGI (BT-549 breast): > 100 µM
TGI (SNB-19 CNS): > 100 µM
TGI (SF-295 CNS): > 100 µM
TGI (MCF7 breast): > 100 µM
TGI (T-47D breast): > 100 µM
TGI (OVCAR-5 ovarian): > 100 µM
TGI (K-562 leukemia): > 100 µM
TGI (RPMI-8226 leukemia): > 100 µM
TGI (HS 578T breast): > 100 µM
TGI (UO-31 renal): > 100 µM
TGI (IGROV1 ovarian): > 100 µM
TGI (M14 melanoma): > 100 µM
TGI (HOP-62 NSCLC): > 100 µM
TGI (HCT-116 colon): > 100 µM
TGI (786-0 renal): > 100 µM
TGI (HCT-15 colon): > 100 µM
TGI (A498 renal): > 100 µM
TGI (U251 CNS): > 100 µM
TGI (UACC-62 melanoma): > 100 µM
TGI (HCC-2998 colon): > 100 µM
TGI (CCRF-CEM leukemia): > 100 µM
TGI (OVCAR-4 ovarian): > 100 µM
TGI (CAKI-1 renal): > 100 µM
TGI (TK-10 renal): > 100 µM
TGI (MDA-MB-435): > 100 µM
TGI (RXF 393 renal): > 100 µM
TGI (MOLT-4 leukemia): > 100 µM
TGI (NCI/ADR-RES ovarian): > 100 µM
TGI (SNB-75 CNS): > 100 µM
TGI (NCI-H522 lung): > 100 µM
TGI (SK-MEL-5 melanoma): > 100 µM

CC(=O)Nc1ccc(-c2csc(Nc3ccc(-c4csc(-c5ccccc5)n4)cc3)n2)cc1
GI50 (OVCAR-8 ovarian): 10.7 µM
TGI (OVCAR-8 ovarian): > 50 µM
GI50 (EKVX NSCLC): 12.9 µM
TGI (EKVX NSCLC): > 50 µM
GI50 (HOP-92 NSCLC): > 50 µM
TGI (HOP-92 NSCLC): > 50 µM
GI50 (NCI-H23 lung): 3.73 µM
TGI (NCI-H23 lung): 20.1 µM
GI50 (SF-268 CNS): 19.9 µM
TGI (SF-268 CNS): > 50 µM
GI50 (KM12 colon): 25.5 µM
TGI (KM12 colon): > 50 µM
GI50 (NCI-H460 lung): 7.94 µM
TGI (NCI-H460 lung): > 50 µM
GI50 (SK-OV-3 ovarian): 9.08 µM
TGI (SK-OV-3 ovarian): > 50 µM
GI50 (SR leukemia): 9.64 µM
TGI (SR leukemia): 45.2 µM
GI50 (PC-3 prostate): 20.6 µM
TGI (PC-3 prostate): > 50 µM
GI50 (COLO 205 colon): > 50 µM
TGI (COLO 205 colon): > 50 µM
GI50 (ACHN renal): 7.53 µM
TGI (ACHN renal): 27.9 µM
GI50 (OVCAR-3 ovarian): > 50 µM
TGI (OVCAR-3 ovarian): > 50 µM
GI50 (SK-MEL-28 melanoma): 7.14 µM
TGI (SK-MEL-28 melanoma): 42.9 µM
GI50 (SW-620 colon): > 50 µM
TGI (SW-620 colon): > 50 µM
GI50 (LOX IMVI melanoma): 31 µM
TGI (LOX IMVI melanoma): > 50 µM
GI50 (HL-60(TB) leukemia): 37.4 µM
TGI (HL-60(TB) leukemia): > 50 µM
GI50 (UACC-257 melanoma): > 50 µM
TGI (UACC-257 melanoma): > 50 µM
GI50 (MDA-MB-231 breast): 6.94 µM
TGI (MDA-MB-231 breast): 27.8 µM
GI50 (DU-145 prostate): 36.1 µM
TGI (DU-145 prostate): > 50 µM
GI50 (A549 NSCLC): 12.6 µM
TGI (A549 NSCLC): > 50 µM
GI50 (SN12C renal): 5.64 µM
TGI (SN12C renal): 23.9 µM
GI50 (BT-549 breast): 11.4 µM
TGI (BT-549 breast): > 50 µM
GI50 (SNB-19 CNS): 16.5 µM
TGI (SNB-19 CNS): > 50 µM
GI50 (SF-295 CNS): 36.3 µM
TGI (SF-295 CNS): > 50 µM
GI50 (MCF7 breast): 16.3 µM
TGI (MCF7 breast): > 50 µM
GI50 (T-47D breast): 26.5 µM
TGI (T-47D breast): > 50 µM
GI50 (OVCAR-5 ovarian): 12.6 µM
TGI (OVCAR-5 ovarian): 42.6 µM
GI50 (K-562 leukemia): 5.52 µM
TGI (K-562 leukemia): > 50 µM
GI50 (RPMI-8226 leukemia): > 50 µM
TGI (RPMI-8226 leukemia): > 50 µM
GI50 (HS 578T breast): 40.9 µM
TGI (HS 578T breast): > 50 µM
GI50 (UO-31 renal): > 50 µM
TGI (UO-31 renal): > 50 µM
GI50 (IGROV1 ovarian): 10.9 µM
TGI (IGROV1 ovarian): 40.2 µM
GI50 (M14 melanoma): > 50 µM
TGI (M14 melanoma): > 50 µM
GI50 (HOP-62 NSCLC): > 50 µM
TGI (HOP-62 NSCLC): > 50 µM
GI50 (HCT-116 colon): > 50 µM
TGI (HCT-116 colon): > 50 µM
GI50 (786-0 renal): 32.2 µM
TGI (786-0 renal): > 50 µM
GI50 (HCT-15 colon): 17.4 µM
TGI (HCT-15 colon): > 50 µM
GI50 (A498 renal): 12.5 µM
TGI (A498 renal): 25.6 µM
GI50 (U251 CNS): 7.16 µM
TGI (U251 CNS): 21.3 µM
GI50 (UACC-62 melanoma): 5.98 µM
TGI (UACC-62 melanoma): > 50 µM
GI50 (CCRF-CEM leukemia): > 50 µM
TGI (CCRF-CEM leukemia): > 50 µM
GI50 (CAKI-1 renal): 20.9 µM
TGI (CAKI-1 renal): > 50 µM
GI50 (TK-10 renal): 16.4 µM
TGI (TK-10 renal): > 50 µM
GI50 (MDA-MB-435): 19.1 µM
TGI (MDA-MB-435): > 50 µM
GI50 (RXF 393 renal): 13.3 µM
TGI (RXF 393 renal): > 50 µM
GI50 (NCI/ADR-RES ovarian): 11.1 µM
TGI (NCI/ADR-RES ovarian): 37.2 µM
GI50 (NCI-H522 lung): 16.3 µM
TGI (NCI-H522 lung): 41.5 µM
GI50 (SK-MEL-5 melanoma): 11.1 µM
TGI (SK-MEL-5 melanoma): 41.2 µM
